Measured values taken from BindingDB's records for patent US20230348442 (Idorsia Pharmaceuticals, 2023).

What follows are molecules tested against Galectin-3 (Homo sapiens, UniProt P17931) (assay: Biological Assay).
Chain of Galectin-3 (P17931 whole entry): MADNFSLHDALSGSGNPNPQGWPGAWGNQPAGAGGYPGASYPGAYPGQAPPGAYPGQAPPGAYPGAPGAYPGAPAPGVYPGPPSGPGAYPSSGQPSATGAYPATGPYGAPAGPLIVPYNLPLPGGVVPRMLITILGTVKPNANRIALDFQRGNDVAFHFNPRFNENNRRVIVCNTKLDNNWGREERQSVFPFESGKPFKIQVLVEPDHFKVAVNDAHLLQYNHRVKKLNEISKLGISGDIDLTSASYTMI
Procedure: (§1) The inhibitory activity of compounds is determined in competitive binding assays. This spectrophotometric assay measures the binding of biotinylated human Gal-3 (hGal-3) or human Gal-1 (hGal-1), respectively, to a microplate-adsorbed glycoprotein, asialofetuin (ASF) (Proc Natl Acad Sci USA. 2013 Mar. 26; 110(13):5052-7.). Alternatively, and preferably, a human Gal-1 version in which all six cysteines are substituted by serines may be used. Briefly, compounds are serially diluted in DMSO (working dilutions). ASF-coated 384 well plates are supplemented with 22.8 μL/well of biotinylated hGal-3 or hGal-1 in assay buffer (i.e. 300-1000 ng/mL biotinylated hGal-3 or hGal-1) to which 1.2 μL of compound working dilutions are added and mixed. Plates are incubated for 3 hours at 4° C., then washed with cold assay buffer (3×50 uL), incubated for 1 hour with 25 μL/well of a streptavidin-peroxidase solution (diluted in assay buffer to 80 ng/mL) at 4° C., followed by further washing steps with assay buffer (3×50 uL). Finally, 25 μL/well of ABTS substrate is added.
With `CO[C@@H]1[C@@H](n2cc(-c3cc(F)c(Br)c(F)c3)nn2)[C@@H](O)[C@@H](CO)O[C@H]1C(=O)N(c1cc(Br)cc(C#N)c1)[C@H]1CCC[C@@H]1O` [US20230348442, Example 1.6.5] the IC50 was 25.5 nM. `N#Cc1cc(Cl)cc(N(C(=O)[C@@H]2O[C@H](CO)[C@H](O)[C@H](n3cc(-c4cc(F)c(Cl)c(F)c4)nn3)[C@H]2O)[C@H]2CCC[C@@H]2O)c1` [US20230348442, Example 1H.5.4] was tested, and the IC50 was 19.9 nM. `CO[C@@H]1[C@@H](n2cc(-c3cc(F)c(F)c(F)c3)nn2)[C@@H](O)[C@@H](CO)O[C@H]1C(=O)N(c1cc(C)cc(Br)c1)[C@H]1CC[C@@H]1O` [US20230348442, Example 2.1.12] gave an IC50 of 111 nM. Work on `O=C([C@@H]1O[C@H](CO)[C@H](O)[C@H](n2cc(-c3cc(F)c(F)c(F)c3)nn2)[C@H]1O)N(c1cc(Cl)cc(Cl)c1)[C@H]1CCC[C@@H]1O` [US20230348442, Example 1H.1.2] yielded an IC50 of 29.4 nM. `CO[C@@H]1[C@@H](n2cc(-c3cc(F)cc(Br)c3)nn2)[C@@H](O)[C@@H](CO)O[C@H]1C(=O)N(c1cc(Br)cc(C#N)c1)[C@H]1CCC[C@@H]1O` [US20230348442, Example 1.10.5] showed an IC50 of 69.2 nM.

What follows are molecules tested against Galectin-1 (Homo sapiens, UniProt P09382) (assay: Biological Assay).
Chain of Galectin-1 (P09382 whole entry): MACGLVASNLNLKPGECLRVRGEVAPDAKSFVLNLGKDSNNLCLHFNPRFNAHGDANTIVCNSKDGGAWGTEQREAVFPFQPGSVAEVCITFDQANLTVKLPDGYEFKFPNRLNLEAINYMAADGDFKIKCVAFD
Procedure: as §1
`O=C([C@@H]1O[C@H](CO)[C@H](O)[C@H](n2cc(-c3cc(F)c(F)c(F)c3)nn2)[C@H]1O)N(c1cc(Cl)cc(Cl)c1)[C@H]1CCC[C@@H]1O` [US20230348442, Example 1H.1.2] showed an IC50 of 2090 nM.
